Test results taken from patent US20240209388A1, “EXPRESSION VECTOR OF GLYPHOSATE-RESISTANT GENES GR79 AND GAT, HIGH GLYPHOSATE-RESISTANT CORN, AND DETECTION METHOD THEREFOR” (BIOTECHNOLOGY RESEARCH INSTITUTE, CHINESE ACADEMY OF …, priority 2021, published 2024).
“Also recorded” adds a separate entry of the source. Like-named read-outs stand apart in the source and are kept apart here.

How the values were obtained:
[1] = test system: non-transgenic control corn; assay type: in vivo; settings: high dose on the pesticide registration tag, four to six leaves, surveyed 1, 2, 4 weeks after application
From the text: (§1) transgenic corn to non-target herbicide 3 types of herbicides were set in this test, i.e., mesotrione· propisochlor atrazine SC (3.5% mesotrione, 15% propisochlor, and 15% atrazine) commonly used in corn field, glufosinate-ammonium (20% active ingredient) sensitive to corn, and haloxyfop-R-methyl (10.8% active ingredient), respectively. 4 treatments were set: (1) free of spraying herbicide; (2) spraying mesotrione· propisochlor atrazine SC; (3) spraying glufosinate-ammonium; and (4) spraying haloxyfop-R-methyl. The spraying dose is a high dose on the pesticide registration tag. Stems and leaves were sprayed when corn grew to four to six leaves. Seedling rate and symptom of pesticide damage were surveyed 1, 2, and 4 weeks later after application, respectively.

[2] = test system: bivalent GAT and GR79 transgenic herbicide-resistant corn; assay type: in vivo; settings: high dose on the pesticide registration tag, four to six leaves, surveyed 1, 2, 4 weeks after application
From the text: as §1

transgenic cotton = settings: T1 generation, solution diluted to 1/200 (0.205 g/100 ml), 450 L/hectare; cited from earlier work
transgenic maize = settings: AM79 single-gene transgenic maize; cited from earlier work
[3] = test system: monovalent GAT transgenic corn; assay: Screening of high glyphosate-resistant events of monovalent GAT transgenic corn; assay type: in vivo, Zea mays
From the text: To determine the effect of the combined use of double genes on high glyphosate tolerance, the transgenic corn transformed with the single gene GAT was subjected to glyphosate tolerance test according to the same screening process, 8 transformation events which could be resistant to 4 times glyphosate were obtained finally, accounting for 21.05% of the 38 positive transgenic materials. By comparison of the two, the bivalent GAT and GR79 transgenic glyphosate-resistant corn was easier to obtain high glyphosate-resistant materials.

[4] = test system: bivalent GAT and GR79 transgenic corn; assay: Screening of high glyphosate-resistant events of bivalent GAT and GR79 transgenic corn; assay type: in vivo, Zea mays; settings: for transformation events free of symptom of pesticide damage: 4 weeks after application
Protocol: 2 times the medium dose of glyphosate (active ingredient: 1800 g/hectare) was continuously applied, and survey was conducted 4 weeks later after application, 63 transformation events were free of symptom of pesticide damage. The T2 generation of materials of the screened 63 transformation events were sown and sprayed with glyphosate at the four to five-leaf stage in a spraying amount of 1-fold, 2 times, and 4 times the medium dose (active ingredient: 900 g/hectare) on the pesticide registration tag. The rate of survival and symptom of pesticide damage of each transformation event were surveyed and recorded 4 weeks later after application. 47 transformation events were free of symptom of pesticide damage after sprayed with 4 times the medium dose of glyphosate and thus, were high glyphosate-resistant materials, accounting for 61.84% of the 76 positive transgenic materials. The screening concentration continued to be increased; when it was up to 8 times (active ingredient: 7200 g/hectare) the medium dose, 6 transformation events were not affected.

transgenic corn GG2 = assay: Field glyphosate tolerance of the transgenic corn event GG2; assay type: in vivo, Zea mays; settings: for plant height 1 week BC4 / plant height 1 week BC5: 1 week after application; for plant height 2 weeks BC4 / plant height 2 weeks BC5: 2 weeks after application; for plant height 4 weeks BC4 / plant height 4 weeks BC5: 4 weeks after application
Protocol: Field herbicide tolerance of transgenic corn was tested in accordance with the Test for Environmental Safety of Transgenic Plant and its Products Part 1 of Herbicide-Resistant Corn: herbicide Tolerance (No. 953 bulletin-11.1-2007 of the Ministry of Agriculture and Rural Affairs).
The test material was the transgenic corn GG2, and the corresponding non-transgenic corn. The herbicide was glyphosate. […] An isolation belt (a width of 1.0 m) was set among the blocks. Treatments include: transgenic corn not sprayed with a herbicide, transgenic corn sprayed with a target herbicide (glyphosate), non-transgenic corn not sprayed with a herbicide, and non-transgenic corn sprayed with a target herbicide (glyphosate). The application amount of the herbicide was 1-fold, 2 times, and 4 times the medium dose (active ingredient: 900 g/hectare) on the pesticide registration tag, respectively. The herbicide was applied at the four to five-leaf stage of corn. The rate of survival, plant height, and symptom of pesticide damage were surveyed and recorded 1, 2, and 4 weeks later after application, respectively. The symptom of pesticide damage was graded according to GB/T 19780.42. Glyphosate in the transgenic corn GG2, and in its corresponding transgenic control, and non-transgenic control was identified.

[5] = 8 times the medium dose (active ingredient: 7200 g/hectare)
[6] = GG2 BC4, 1-fold the medium dose
[7] = GG2 BC4, 2 times the medium dose
[8] = GG2 BC4, 4 times the medium dose
[9] = GG2 BC5, 1-fold the medium dose
[10] = GG2 BC5, 2 times the medium dose
[11] = GG2 BC5, 4 times the medium dose

## COC(=O)[C@@H](C)Oc1ccc(Oc2ncc(C(F)(F)F)cc2Cl)cc1 [haloxyfop-R-methyl]
[1]
  seedling rate and symptom of pesticide damage: died

## CP(=O)(O)CCC(N)C(=O)O (centres unmarked) [glufosinate-ammonium]
[2]
  seedling rate and symptom of pesticide damage: died
[2]; listed as Glufosinate-ammonium
  seedling rate and symptom of pesticide damage: sensitive
[1]
  seedling rate and symptom of pesticide damage: died

## CC(C)N.O=C(O)CNCP(=O)(O)O [glyphosate isopropylamine]
Transgenic cotton
  survival rate: more than 84%

## O=C(O)CNCP(=O)(O)O [glyphosate]
Transgenic maize
  tolerated dose (active ingredient): 3600 g/hectare
[3]; 4 times glyphosate
  resistant events as share of the 38 positive transgenic materials: 21.05%
[3]; [5]
  plant survival: no survival plant
[3]; of 38 positive single-gene GAT materials, 4 times the medium dose
  transformation events resistant to 4 times glyphosate: 8
[3]; partial high-resistant GAT events, a few days after 4 times the medium dose
  leaf symptoms of pesticide damage: mild symptoms of herbicide damage; also recorded: mild symptoms of pesticide damage
[4]; 4 times the medium dose
  high glyphosate-resistant materials as share of the 76 positive transgenic materials: 61.84%
[4]; [5]
  transformation events not affected: 6
[4]; GG2 transformation event
  harm by glyphosate during multi-generation screening: not endangered by glyphosate
[4]; T1, 2 times the medium dose (active ingredient: 1800 g/hectare)
  transformation events free of symptom of pesticide damage: 63
[4]; T1 generation of 76 double-positive events, four-leaf stage, medium dose (active ingredient: 900 g/hectare)
  survival transformation events: 72
[4]; T1 generation of 76 double-positive events, medium dose (active ingredient: 900 g/hectare)
  rate of zero symptom of pesticide damage: 94.7%
[4]; T2 of 63 events, 4 times the medium dose
  transformation events free of symptom of pesticide damage: 47
Transgenic corn GG2; GG2, 1-fold, 2 and 4 times the medium dose
  plant height versus transgenic corn not sprayed: no significant difference
Transgenic corn GG2; GG2, 1-fold, 2 and 4 times the medium dose, each stage, two consecutive generations
  symptom of damage: free of symptom of damage
Transgenic corn GG2; GG2 BC4, 1-fold the medium dose (900 g active ingredient/hectare)
  plant height 1 week BC4: 58.52 cm
Transgenic corn GG2; [6]
  plant height 2 weeks BC4: 85.59 cm
  plant height 4 weeks BC4: 158.39 cm
Transgenic corn GG2; [7]
  plant height 1 week BC4: 51.24 cm
  plant height 2 weeks BC4: 79.38 cm
  plant height 4 weeks BC4: 147.75 cm
Transgenic corn GG2; [8]
  plant height 1 week BC4: 59.81 cm
  plant height 2 weeks BC4: 88.41 cm
  plant height 4 weeks BC4: 158.53 cm
Transgenic corn GG2; [9]
  plant height 1 week BC5: 33.87 cm
  plant height 2 weeks BC5: 51.71 cm
  plant height 4 weeks BC5: 136.37 cm
Transgenic corn GG2; [10]
  plant height 1 week BC5: 33.11 cm
  plant height 2 weeks BC5: 54.29 cm
  plant height 4 weeks BC5: 139.65 cm
Transgenic corn GG2; [11]
  plant height 1 week BC5: 34.65 cm
  plant height 2 weeks BC5: 53.78 cm
  plant height 4 weeks BC5: 137.39 cm
Transgenic corn GG2; medium dose 900 g active ingredient/hectare
  glyphosate dose GG2 is resistant to: 4 times the medium dose
